Laboratory results as given in US6355799B1, “Substituted benzene compounds, process for their preparation, and herbicidal and defoliant compositions containing them” (ISK Americas Incorporated, priority 1997, dated 2002).

Legend:
Format in all cases: in vivo
[1] = tested on: green foxtail (Setaria viridis, SETVI); assay: Post-emerge test, greenhouse herbicide activity screening; conditions: Setaria viridis, post-emergence, 336 h, post-emerge, phytotoxicity rating 0-100 at 14 days after application, read-out: Post-emerge Herbicidal Activity SETVI; for pest or weed control at 63 g/ha: 63 g ai/ha; for pest or weed control at 250 g/ha: 250 g ai/ha
Method in brief: (§1)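 Plants grown in 10 cm pots of sandy loam mix received acetone-dissolved compounds through a moving flat-fan nozzle. Doses ranged from 15 to 1000 g ai/ha. Pre-emerge pots were seeded one day earlier, post-emerge pots 8–21 days earlier. Fourteen days on, each pot was graded 0–100 for damage.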

[2] = tested on: johnsongrass (Sorghum halepense, SORHA); assay: as above; conditions: Sorghum halepense, post-emergence, 336 h, post-emerge, phytotoxicity rating 0-100 at 14 days after application, read-out: Post-emerge Herbicidal Activity SORHA
Method in brief: as §1

[3] = tested on: lambsquarters (Chenopodium album, CHEAL); assay: as above; conditions: Chenopodium album, post-emergence, 336 h, post-emerge, phytotoxicity rating 0-100 at 14 days after application, read-out: Post-emerge Herbicidal Activity CHEAL; for pest or weed control at 63 g/ha: 63 g ai/ha; for pest or weed control at 250 g/ha: 250 g ai/ha
Method in brief: as §1

[4] = tested on: large crabgrass (Digitaria sanguinalis, DIGSA); assay: as above; conditions: Digitaria sanguinalis, post-emergence, 336 h, post-emerge, phytotoxicity rating 0-100 at 14 days after application, read-out: Post-emerge Herbicidal Activity DIGSA; for pest or weed control at 63 g/ha: 63 g ai/ha; for pest or weed control at 250 g/ha: 250 g ai/ha
Method in brief: as §1

[5] = tested on: sicklepod (Cassia obtusifolia, CASOB); assay: as above; conditions: Senna obtusifolia, post-emergence, 336 h, post-emerge, phytotoxicity rating 0-100 at 14 days after application, read-out: Post-emerge Herbicidal Activity CASOB; for pest or weed control at 63 g/ha: 63 g ai/ha; for pest or weed control at 250 g/ha: 250 g ai/ha
Method in brief: as §1

[6] = tested on: velvetleaf (Abutilon theophrasti, ABUTH); assay: as above; conditions: Abutilon theophrasti, post-emergence, 336 h, post-emerge, phytotoxicity rating 0-100 at 14 days after application, read-out: Post-emerge Herbicidal Activity ABUTH; for pest or weed control at 63 g/ha: 63 g ai/ha; for pest or weed control at 250 g/ha: 250 g ai/ha
Method in brief: as §1

[7] = tested on: redroot pigweed (Amaranthus retroflexus, AMARE); assay: as above; conditions: Amaranthus retroflexus, post-emergence, 336 h, post-emerge, phytotoxicity rating 0-100 at 14 days after application, read-out: Post-emerge Herbicidal Activity AMARE; for pest or weed control at 63 g/ha: 63 g ai/ha; for pest or weed control at 250 g/ha: 250 g ai/ha
Method in brief: as §1

[8] = tested on: green foxtail (Setaria viridis, SETVI); assay: Pre-emerge test, greenhouse herbicide activity screening; conditions: Setaria viridis, pre-emergence, 336 h, pre-emerge, phytotoxicity rating 0-100 at 14 days after application, read-out: Pre-emerge Herbicidal Activity SETVI; for pest or weed control at 63 g/ha: rate 63 g ai/ha; for pest or weed control at 250 g/ha: rate 250 g ai/ha
Method in brief: (§2)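 Herbicidal damage is scored 0 (none) to 100 (complete plant death) two weeks after a simulated field spray. Rates span 15–1000 g ai/ha, delivered in acetone at 187 l/ha. For post-emergence treatments, plants have 2–3 leaves and the spray carries 0.25% v/v non-ionic surfactant.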

[9] = tested on: lambsquarters (Chenopodium album, CHEAL); assay: as above; conditions: Chenopodium album, pre-emergence, 336 h, pre-emerge, phytotoxicity rating 0-100 at 14 days after application, read-out: Pre-emerge Herbicidal Activity CHEAL; for pest or weed control at 63 g/ha: rate 63 g ai/ha; for pest or weed control at 250 g/ha: rate 250 g ai/ha
Method in brief: as §2

[10] = tested on: barnyardgrass (Echinochloa crus-galli, ECHCG); assay: as above; conditions: Echinochloa crus-galli, pre-emergence, 336 h, pre-emerge, phytotoxicity rating 0-100 at 14 days after application, read-out: Pre-emerge Herbicidal Activity ECHCG; for pest or weed control at 63 g/ha: rate 63 g ai/ha; for pest or weed control at 250 g/ha: rate 250 g ai/ha
Method in brief: as §2

[11] = tested on: ivyleaf morningglory (Ipomoea hederacea, IPOHE); assay: as above; conditions: Ipomoea, pre-emergence, 336 h, pre-emerge, phytotoxicity rating 0-100 at 14 days after application, read-out: Pre-emerge Herbicidal Activity IPOHE; for pest or weed control at 63 g/ha: rate 63 g ai/ha; for pest or weed control at 250 g/ha: rate 250 g ai/ha
Method in brief: as §2

[12] = tested on: large crabgrass (Digitaria sanguinalis, DIGSA); assay: as above; conditions: Digitaria sanguinalis, pre-emergence, 336 h, pre-emerge, phytotoxicity rating 0-100 at 14 days after application, read-out: Pre-emerge Herbicidal Activity DIGSA; for pest or weed control at 63 g/ha: rate 63 g ai/ha; for pest or weed control at 250 g/ha: rate 250 g ai/ha
Method in brief: as §2

[13] = tested on: sicklepod (Cassia obtusifolia, CASOB); assay: as above; conditions: Senna obtusifolia, pre-emergence, 336 h, pre-emerge, phytotoxicity rating 0-100 at 14 days after application, read-out: Pre-emerge Herbicidal Activity CASOB; for pest or weed control at 63 g/ha: rate 63 g ai/ha; for pest or weed control at 250 g/ha: rate 250 g ai/ha
Method in brief: as §2

[14] = tested on: velvetleaf (Abutilon theophrasti, ABUTH); assay: as above; conditions: Abutilon theophrasti, pre-emergence, 336 h, pre-emerge, phytotoxicity rating 0-100 at 14 days after application, read-out: Pre-emerge Herbicidal Activity ABUTH; for pest or weed control at 63 g/ha: rate 63 g ai/ha; for pest or weed control at 250 g/ha: rate 250 g ai/ha
Method in brief: as §2

[15] = tested on: johnsongrass (Sorghum halepense, SORHA); assay: as above; conditions: Sorghum halepense, pre-emergence, 336 h, pre-emerge, phytotoxicity rating 0-100 at 14 days after application, read-out: Pre-emerge Herbicidal Activity SORHA
Method in brief: as §2

| Compound | pest or weed control at 63 g/ha [1] [%] | pest or weed control at 250 g/ha [1] [%] | pest or weed control at 63 g/ha [3] [%] | pest or weed control at 250 g/ha [3] [%] | pest or weed control at 63 g/ha [4] [%] | pest or weed control at 250 g/ha [4] [%] | pest or weed control at 63 g/ha [5] [%] | pest or weed control at 250 g/ha [5] [%] | pest or weed control at 63 g/ha [6] [%] | pest or weed control at 250 g/ha [6] [%] | pest or weed control at 63 g/ha [7] [%] | pest or weed control at 250 g/ha [7] [%] | pest or weed control at 63 g/ha [8] [%] | pest or weed control at 250 g/ha [8] [%] | pest or weed control at 63 g/ha [9] [%] | pest or weed control at 250 g/ha [9] [%] | pest or weed control at 63 g/ha [10] [%] | pest or weed control at 250 g/ha [10] [%] | pest or weed control at 63 g/ha [11] [%] | pest or weed control at 250 g/ha [11] [%] | also measured |
| --- | --- | --- | --- | --- | --- | --- | --- | --- | --- | --- | --- | --- | --- | --- | --- | --- | --- | --- | --- | --- | --- |
| Cc1nn(-c2c(F)cc(Cl)cc2NC(=O)c2ccc3ccccc3c2)c(=O)n1C(F)F [Compound 6-24] | 0 | 40 | 30 | 90 | 0 | 0 | 0 | 10 | 20 | 95 | 0 | 80 | 0 | 40 | 30 | 90 | 0 | 0 | 0 | 0 | pest or weed control at 63 g/ha ([2]; 63 g ai/ha): 0%; pest or weed control at 250 g/ha ([2]; 250 g ai/ha): 0%; pest or weed control at 63 g/ha [12]: 0%; pest or weed control at 250 g/ha [12]: 20%; pest or weed control at 63 g/ha [13]: 0%; pest or weed control at 250 g/ha [13]: 0%; pest or weed control at 63 g/ha [14]: 0%; pest or weed control at 250 g/ha [14]: 70% |
| COc1c(Cl)cc(F)c(-n2nc(C)n(C(F)F)c2=O)c1NC(=O)c1ccc2ccccc2c1 [Compound 6-15] | 50 | 85 | 100 | 100 | 30 | 60 | 100 | 100 | 100 | 100 | 100 | 100 | 95 | 100 | 100 | 100 | 50 | 80 | 70 | 40 | pest or weed control at 63 g/ha ([15]; rate 63 g ai/ha): 50%; pest or weed control at 250 g/ha ([15]; rate 250 g ai/ha): 100%; pest or weed control at 63 g/ha [12]: 80%; pest or weed control at 250 g/ha [12]: 100%; pest or weed control at 63 g/ha [13]: 70%; pest or weed control at 250 g/ha [13]: 80%; pest or weed control at 63 g/ha [14]: 100%; pest or weed control at 250 g/ha [14]: 100% |
